Reference: paper PMC10761396, “Evaluation of new alternative methods for the identification of estrogenic, androgenic and steroidogenic effects: a comparative in vitro/in silico study” (Archives of Toxicology, 2023)
Read-outs that look alike come from different tables or passages of the source.

Tests used:
[1] = system: AR; settings: AR pathway model; ref Kleinstreuer et al (2017) 10.1021/acs.chemrestox.6b00347; cited from earlier work
[2] = system: ER; set-up: method as in US EPA ToxCast; settings: ref US EPA ToxCast, cited from earlier work
[3] = system: aromatase; experiment: ToxCast aromatase assays (TOX21_Aromatase_Inhibition) and final ToxCast call; format: cell-based
Text: (§1) The performance of different in silico models for ED effects tends to be evaluated on single model for a single effect, such as ER or AR binding, agonism or antagonism (normally by the developer), or a limited number of models using multiple chemicals (Weyrich et al. [2022]). Multi-organisation collaborations have also evaluated multiple models for a specific effect e.g. ER (Mansouri et al. [2016]) and AR (Mansouri et al. [2020]) effects. Therefore, we have conducted a side-by-side comparison of multiple different in silico models covering three pathways in ED, namely ER, AR and aromatase inhibition and compared these with ToxCast-derived final calls, as well as with results from in vitro assays. The efficiency of the in silico models was evaluated as a metric for the ability of the in silico model to generate concrete predictions. […] In vivo data were available for some but not all chemicals; therefore, an evaluation of the performance of the methods was made by comparing the derived overall calls from in silico models with those from the ToxCast database. The final call for each chemical evaluated in the ToxCast assays was made by considering the active-flagged assays and the corresponding cytotoxicity levels, the ToxCast Pathway Model (Browne et al. [2015]) and the CERAPP Potency Level (Mansouri et al. [2016]) for ER effects and the ToxCast Pathway Model (Kleinstreuer et al. [2017]) for AR effects (see Online Resource 1 Supplementary Tables 2, 4 and 6 for the outcome of the ER, AR and aromatase ToxCast assays, additional literature and final calls for each chemical and target).
Aromatase represents only one enzyme involved in steroidogenesis (the conversion of androgens to oestrogens); therefore, the aromatase assay detects effects on 17β-oestradiol production only. […] It is a cell-based assay in which MCF-7 cells are incubated with the test chemical for 24 h before measuring aromatase activities indirectly via a luciferase-based reporter endpoint which is dependent on the binding of the oestradiol–ER complex to the oestrogen response element. A decrease in luciferase activity can occur as a result of direct inhibition of aromatase (preventing the production of oestradiol) or by preventing oestradiol from binding to the ER and thus the binding to the oestrogen RE which initiates the production of luciferase (Lui et al. [2008]).

[4] = system: ER; set-up: method as in Mansouri et al. 2016; settings: ref Mansouri et al. 2016; cited from earlier work
[5] = system: ER; experiment: ToxCast ER assays and final ToxCast call
Text: (§2) A rich source of data can be found in the EPA's ToxCast database (US EPA). This contains ED data for ~ 1800 chemicals in more than 700 high-throughput assay endpoints that cover a range of high-level cell responses. The US EPA is running an Endocrine Disruption Screening Program (EDSP), with the aim of prioritising chemicals using high-throughput screening methods and computational toxicology approaches to evaluate thousands of chemicals for ED activities. The OECD framework for ED assessment (OECD [2018]) requires animal testing at higher levels, where relevant in vitro alternatives are missing e.g. for developmental, reproductive, neurological and immune effects. However, such follow-up testing is not possible for the cosmetics industry especially in the EU due to the complete animal testing ban which came into force in March 2013 (EU [2009]). Even for other industries, animal models are not suitable for assessing ED effects due to issues relating to ethics, capacity, speed and relevance (Patisaul et al. [2018]). Therefore, chemicals which cannot be evaluated using in vivo method must be assessed using alternative methods e.g. in silico and in vitro methods listed in Levels 1 and 2 of the framework described in the OECD 150 test guideline (OECD [2018]).
as §1

[6] = system: H295R cells; experiment: H295R steroidogenesis assay (oestrogen and androgen production); format: cell-based, human; settings: Homo sapiens, NCI-H295R, 48 h
Method: The in vitro H295R Steroidogenesis Assay is based on the human adenocarcinoma cell line, NCI-H295R, in which the human steroidogenesis pathway is fully functional (OECD 2022). The effect of the test chemical on the production of 17β-estradiol and testosterone is measured using ERα CALUX and AR CALUX technology.
The test chemical was tested in two independent assays, each in triplicate.

[7] = system: ER; set-up: method as in Browne, et al (2015); settings: ref Browne, et al (2015), cited from earlier work
[8] = system: AR; set-up: method as in ToxCast; settings: ToxCast AR assays; ref ToxCast; cited from earlier work
[9] = system: aromatase; set-up: method as in US EPA ToxCast; settings: ref US EPA ToxCast; cited from earlier work
[10] = system: AR; experiment: ToxCast AR assays and final ToxCast call
Text: as §2, §1

O=C(O)c1ccc(C(=O)O)cc1 [Terephthalic acid, terephthalic acid]
ToxCast Pathway Model (AUC) [1]: AUC = 0, then there is no significant interaction.
ToxCast 1: (Comments), efficacy ([2]; borderline: less than 50% efficacy): Boarderline: less than 50% efficacy (31.34%)
ToxCast 1: (Active assays), ER assay listed as active ([2]; each listed assay name = active-flagged assay): OT_ER_ERaERb_1440
ToxCast 1: (Active assays), positive/total ER assays [2]: 1/18 Positive
ToxCast result ([3]; aromatase overall ToxCast call): Negative
Final "true" call (ToxCast) Aromatase inhibition ([3]; from ToxCast assays): Negative
CERAPP Potency Level [4]: Negative
Final "true" call (ToxCast) ER ([5]; from active ToxCast assays, cytotoxicity, ToxCast Pathway Model and CERAPP Potency Level): Negative
ToxCast result (ER) ([5]; overall call from ToxCast data (Supplementary Table 2)): Negative
minimal effective concentration ([6]; read-out: Steroidogenesis Androgenicity LEC): > 100 µM
minimal effective concentration ([6]; read-out: Steroidogenesis Estrogenicity LEC): > 100 µM
ToxCast Pathway Model (AUC) ([7]; as agonist where given, value above 0.1 = significant interaction): 0
ToxCast Pathway Model interaction [7]: NO significant interaction
ToxCast 1: (Active assays), number of positive assays / assays run [8]: 0/14 positive
ToxCast (Aromatase assays), positive/total [9]: 0/2 positive
Final "true" call (ToxCast) ([10]; AR effects, from active assays, cytotoxicity and pathway model): Negative
ToxCast result ([10]; AR overall call from Supplementary Table 4): Negative
Final "true" call (ToxCast) AR ([10]; from ToxCast assays and ToxCast Pathway Model): Negative
